The values that follow come from publication PMC10872342, “9S1R nullomer peptide induces mitochondrial pathology, metabolic suppression, and enhanced immune cell infiltration, in triple-negative breast cancer mouse model” (Biomedicine & pharmacotherapy = Biomedecine & …, 2023).

Data set [1] concerns 4T1.2-Luc TNBC tumors in Balb/c mice. Briefly: 4T1.2-Luc orthotopic TNBC mouse model, unilateral tumors, eight IP doses. It counts as in vivo. Particulars: trehalose only group, H&E scoring. An excerpt:
(§1) The model was created by orthotopically injecting 4T1.2-Luc cells in the 4th mammary fat pad of Balb/c mice, with 1 × 10^5 cells per mouse. The cell line was developed by Dr. Cheryl L. Jorcyk and expresses the luciferase gene which serves as a luminescent indicator of gene expression or tumorigenesis, making the tumor cell traceable in vivo. Treatment started after the formation of palpable tumors and was detected by in vivo BLI (IVIS, Perkin Elmer) followed by randomization of the animals per group. For evaluating the effect of the peptides on this model, we carried out two separate studies. […]
Mice were anesthetized by isoflurane followed by measurement of the tumor length and width using a manual Vernier caliper. This was performed before every drug administration and the tumor volume was calculated using the formula (length × width^2)/2. Body weights were also measured before every dose of the drug.
Whole-body bioluminescence imaging (BLI) using the In Vivo Imaging System (IVIS® Spectrum, Perkin Elmer) was performed to detect in vivo tumor burden and metastasis, as evaluated by the bioluminescence signal from the 4T1.2-Luc cells. […] The images were analyzed by Perkin Elmer software and Aura Version 4.0.7 (Spectral instruments Imaging). […]

The test system is the same in data set [2]. Kind of data set: Pilot study, 4T1.2-Luc bilateral mammary tumor model, six IP doses. It counts as in vivo, mouse. To be noted: study-1, trehalose only group.
From the text: as §1, with “studies. The first pilot study involved a set of 4 mice per group with bilateral mammary tumors, which received six IP administration of PBS, 9S1R-NulloPT drug at 50 mg/kg, 100 mg/kg body weight or Trehalose, over a period of 2 weeks. The present study includes a set of 7–9 mice per group with unilateral tumors including the same groups as in the pilot study, but received a total of eight injections per mouse over a period of 2 weeks.” for “studies.”
Supplementary Fig 2: Detailed results from pilot first study with six IP administration of PBS (control), Trehalose, 50mg/kg NulloPT and 100 mg/kg NulloPT in TNBC mice. […] Treatment started after the formation of palpable tumors and was detected by an in vivo BLI system (IVIS, Perkin Elmer) followed by randomization of the animals per group. […]

Data set [3] can be described thus: Half-life of peptide 9S1R in serum. It counts as in vitro ADME. To be noted: bovine, fetal bovine serum; peptide spiked into FBS, 37 °C, exposure 30 s, 5, 30, 60, 90 min; 75% ice cold acetonitrile precipitation; HPLC-QTOF MS, log2 EIC peak area vs time; read-out: half-life (t1/2) in fetal bovine serum. As to the method: The half-life of peptide 9S1R was determined by spiking the peptide into fetal bovine serum (FBS) for exposure times of 30 s and 5, 30, 60 or 90 min. During the exposure, FBS containing the spike peptides were incubated at 37 °C. The exposure was halted, and the peptide was extracted from FBS using protein precipitation. Protein precipitation was accomplished using 75% ice cold acetonitrile, followed by incubation at − 20 °C for one hour, and centrifugation at 9000 rpm for 10 min at […]. The supernatant was removed and saved for analysis. Peptide samples were analyzed by High pressure liquid chromatography (HPLC) mass spectrometry (MS) using an ultra-high-resolution Quadrupole Time of Flight (QTOF) instrument (Bruker maxis, Bruker Corporation, Billerica, MA, USA). HPLC mobile phase consisted of 18 MΩ H2O and HPLC grade formic acid and acetonitrile (> 99% purity, Fisher Scientific, Pittsburgh, PA, USA). The electrospray ionization (ESI) source was operated under the following conditions: positive ion mode; nebulizer pressure: 1.2 Bar; flow rate of drying gas (N2): 8 L/min; drying gas temperature: 200 °C; voltage between HV capillary and HV end-plate offset: 3000 V to – 500 V; mass range was set from 250 to 2900 m/z; and the quadrupole ion energy was 4.0 eV. […]

Data set [4] relates to 4T1.2 cells. Kind of data set: LC-MS detection of peptide internalization within cells. To be noted: 50uM, 2h, PBS wash, lysis, 3KDa filter, 3+ and 4+ forms. It counts as cell-based, mouse. As to the method: Supplementary Fig 1: Detection of peptide internalization and stability within cells. (A) LC-MS Graph showing peak of peptide only spike at 1mg/ml final concentration (positive control) (B) Sample-1: 2 × 10^5 4T1.2 cells lysate was filtered through a 3KDa cut-off Amicon protein filters (Millipore) to get rid of proteins larger than 3KDa, followed by LC-MS detection (negative control). (C) Sample-2: 2 × 10^5 4T1.2 cells lysate (50ul) was mixed with the peptide at 1mg/ml final concentration and incubated for 30 mins followed by filtering through 3 KDa cut-off filter and LC-MS detection. (D) Sample-3: 50 ul of filtered cell lysate or Sample-1 was mixed with the peptide at 1mg/ml final concentration and incubated for 30 mins followed by LC-MS detection. (E) Sample-4: Cells were treated with 50uM of peptide and incubated for 2h followed by washing in PBS, lysis, passing through 3KDa protein filter, and detection by LC-MS. […] (G) Enlarged peaks from- C, Sample-2 with (H) extracted ion chromatogram (EIC) peaks of the detected peptide at the exact 3+ and 4+ valance forms (red circles). (I) Enlarged peaks from- E, Sample-4 with (J) extracted ion chromatogram (EIC) peaks of the detected peptide at the exact 3+ and 4+ valance forms (red circles).

“Also recorded” adds a separate entry of the source. Ends that are not written are not given here.

As for `OC[C@H]1O[C@H](O[C@H]2O[C@H](CO)[C@@H](O)[C@H](O)[C@H]2O)[C@H](O)[C@@H](O)[C@@H]1O` [Trehalose], in data set [1], the “immune cell infiltration or margin inflammation on the tumors” value is reported as “did not show any effect”. For the same compound, the “tumor size with trehalose alone” value in data set [2] is “higher than control tumor size”.

For the compound RRRRRWCMNW [9S1R], the half-life in data set [3] is 8.7 min. The “uptake of native untagged peptide inside cells by mass spectrometry” value in data set [4] is “detected inside cells in two forms; also recorded: available inside the cells”.
